# Source: PMC12661400, “Oral bioavailable ITRI-148 degrades androgen receptor variants and overcomes antiandrogen resistance in advanced prostate cancer” (Neoplasia (New York, N.Y.), 2025)
# Tests used:
# Format in all cases: cell-based
# VCaP = test: MTT cell viability, 7 days; settings: Homo sapiens, 168 h
# Protocol: (§1) Cells were seeded in 96-well plates and treated with drugs the next day. After 7 days, viability was assessed using MTT assay.
# (§2) (C) Western blot analysis of AR and AR-V7 in C4-2B and C4-2B/MDVR cells after 48-hour ITRI-148 treatment. […] DEGs were determined relative to DMSO or pLKO.1 vector control. […] RPL13A was used for normalization. […] AR, AR-V7, and PSA expression in the drug-treated cells were detected across treatment timepoints.
# LNCaP95 = test: MTT cell viability, 7 days; settings: LNCaP-95, 168 h
# Protocol: as §1, §2
# LNCaP = test: MTT cell viability, 7 days; settings: Homo sapiens, 168 h
# Protocol: as §1, §2
# CWR22Rv1 = test: MTT cell viability, 7 days; settings: 168 h
# Protocol: as §1, §2
# AR = AR degradation by immunoblotting in CRPC cells; settings: 10 μM
# Protocol: Cell lysis, Western blotting, and AR ubiquitination were performed as described in [17]. Primary antibodies: AR (Millipore 06-680), AR-V7 (RevMAb Biosciences 31-1109-00), PSA (ABclonal A4355), NKX3-1 (Cell Signaling Technology 92998), GAPDH (Cell Signaling Technology 2118) and β-Actin (Sigma-Aldrich A5441).
# Fig. 1 ITRI-148 induces degradation of both AR and AR-V7 proteins in CRPC cells. […] (B) Expression of Flag-tagged AR-V7 in 293T cells following ITRI-148 treatment. Cells transiently expressing Flag-AR-V7 were pretreated with 50 μg/mL cycloheximide for 1 hour, then exposed to ITRI-148 at the indicated concentrations for 8 hours. AR-V7 expression was detected using an anti-Flag antibody. (C) Representative immunoblots showing AR protein levels in VCaP and CWR22Rv1 cells after 48 hours of ITRI-148 treatment. An N-terminal AR antibody was used to detect both full-length AR and LBD-truncated variants (AR-V(ΔLBD)) in CWR22Rv1 cells, while AR-V7 was detected using an AR-V7-specific antibody. DC₅₀ values were calculated from normalized band intensities, and Dₘₐₓ represents the maximal degradation achieved at 10 μM ITRI-148. (D) Immunofluorescence staining of AR after 24 or 48 hours of ITRI-148 treatment, detected using an N-terminal AR antibody. […] (F) Western blot analysis of ectopically expressed wild-type (WT) and mutant Myc-tagged AR in DU145 cells following 24 hours of treatment with 10 μM ITRI-148. Quantified AR levels are as indicated. TEXT PRINTED IN THE PICTURE: (C) ITRI-148: DC50 (μM) AR CWR22Rv1: 1.23 ± 1.86; DC50 (μM) AR VCaP: 0.05 ± 0.03; DC50 (μM) AR-V7 CWR22Rv1: 1.20 ± 0.92; DC50 (μM) AR-V7 VCaP: 0.02 ± 0.02; Dmax (%) AR CWR22Rv1: 65.02 ± 19.91; Dmax (%) AR VCaP: 80.49 ± 5.61; Dmax (%) AR-V7 CWR22Rv1: 72.10 ± 3.15; Dmax (%) AR-V7 VCaP: 91.36 ± 2.05
Compound,IC50 (VCaP) [µM],IC50 (LNCaP95) [µM],IC50 (LNCaP) [nM],IC50 (CWR22Rv1) [µM],degradation of the AR proteins (western blot) (AR)
"N#Cc1ccc(O[C@H]2CC[C@H](NC(=O)c3ccc(N4CCC(CN5CCN(c6cc7c(cc6F)C(=O)N(C6CCC(=O)NC6=O)C7=O)CC5)CC4)nn3)CC2)cc1Cl (some centres unmarked) [ARV-110, reference compound]",> 10,> 10,740,> 10,
CN1C(=O)CCC(N2C(=O)c3cccc(NCC(=O)N4CCC(N5CCC(C#Cc6ccc(C7CCN(C8=Nn9c(nnc9C(F)(F)F)CC8)CC7)cc6)CC5)CC4)c3C2=O)C1=O (centres unmarked) [inactive analog of ITRI-148],,,,,failed to degrade the AR proteins
